The first test has as its target T1, Tyrosinase (Agaricus bisporus, UniProt O42713).
T1 sequence (O42713 whole entry): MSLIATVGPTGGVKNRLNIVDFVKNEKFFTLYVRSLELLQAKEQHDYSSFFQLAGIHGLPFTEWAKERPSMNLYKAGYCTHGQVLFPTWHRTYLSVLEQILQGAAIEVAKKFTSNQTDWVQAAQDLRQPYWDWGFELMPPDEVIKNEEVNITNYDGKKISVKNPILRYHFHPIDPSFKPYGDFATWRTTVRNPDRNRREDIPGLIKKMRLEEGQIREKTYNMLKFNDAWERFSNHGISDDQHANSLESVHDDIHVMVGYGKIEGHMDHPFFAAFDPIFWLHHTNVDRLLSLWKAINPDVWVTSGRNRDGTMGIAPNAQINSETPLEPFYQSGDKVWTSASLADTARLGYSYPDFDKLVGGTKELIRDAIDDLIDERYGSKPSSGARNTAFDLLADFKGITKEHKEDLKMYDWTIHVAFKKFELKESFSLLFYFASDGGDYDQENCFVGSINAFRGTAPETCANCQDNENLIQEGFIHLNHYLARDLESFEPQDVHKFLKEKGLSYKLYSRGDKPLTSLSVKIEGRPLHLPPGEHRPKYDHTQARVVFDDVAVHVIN
The experiment in a line: Inhibition of mushroom tyrosinase using TBC as substrate by spectrophotometric method.
Broadly, the IC50 is the concentration that inhibits the measured activity by half. Read a high IC50 as lower potency. As for `OC[C@H]1O[C@@H](OCCCCCCCCCCCCCCc2ccc(O)cc2O)[C@H](O)[C@@H](O)[C@@H]1O`, the IC50 came out at 390 nM.
`OC[C@H]1O[C@@H](OCCc2ccc(O)cc2O)[C@H](O)[C@@H](O)[C@@H]1O` showed an IC50 of 35900 nM.
For `OC[C@H]1O[C@@H](OCCCCCCc2ccc(O)cc2O)[C@H](O)[C@@H](O)[C@@H]1O`, half-maximal inhibition (IC50) was put at 630 nM. This IC50 is about 57-fold lower than that of the compound before.
Take `OC[C@H]1O[C@@H](OCCCCCCCCCCc2ccc(O)cc2O)[C@H](O)[C@@H](O)[C@@H]1O`: the IC50 turned out to be 410 nM. Compared with the last compound, the IC50 is about 1.5-fold lower.
`OC[C@H]1O[C@@H](OCCCCc2ccc(O)cc2O)[C@H](O)[C@@H](O)[C@@H]1O` yielded an IC50 of 1360 nM.
Compound `OC[C@H]1O[C@@H](OCCCc2ccc(O)cc2O)[C@H](O)[C@@H](O)[C@@H]1O` registered an IC50 of 3620 nM.
The same measure, in the same setting: in the case of `CCCCCCc1ccc(O)cc1O` [HEXYLRESORCINOL] it was 610 nM.

In the next test the target is T2, Tyrosinase (Homo sapiens, UniProt P14679).
T2 sequence (P14679 whole entry): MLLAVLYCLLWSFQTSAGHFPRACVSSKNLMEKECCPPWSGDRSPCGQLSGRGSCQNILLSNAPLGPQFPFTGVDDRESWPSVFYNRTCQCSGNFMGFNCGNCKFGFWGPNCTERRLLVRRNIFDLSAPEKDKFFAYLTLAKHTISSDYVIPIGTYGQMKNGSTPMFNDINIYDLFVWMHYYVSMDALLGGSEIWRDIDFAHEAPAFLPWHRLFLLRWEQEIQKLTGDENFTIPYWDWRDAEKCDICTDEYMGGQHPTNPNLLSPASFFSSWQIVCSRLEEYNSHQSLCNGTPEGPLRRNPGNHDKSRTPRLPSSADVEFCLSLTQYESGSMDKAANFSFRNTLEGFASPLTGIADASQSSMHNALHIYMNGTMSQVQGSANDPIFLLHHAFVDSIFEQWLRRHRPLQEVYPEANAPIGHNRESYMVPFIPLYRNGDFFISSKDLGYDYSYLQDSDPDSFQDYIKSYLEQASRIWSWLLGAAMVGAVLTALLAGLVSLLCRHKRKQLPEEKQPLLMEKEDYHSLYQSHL
Kind of test: Inhibition of tyrosinase (unknown origin) using L-DOPA as substrate preincubated with substrate for 5 mins followed by enzyme addition and measured immediately by spectrophotometric method.
The compound `OC[C@H]1O[C@@H](Oc2ccc(O)cc2O)[C@H](O)[C@@H](O)[C@@H]1O` returned an IC50 of 417000 nM.

The values are drawn from ChEMBL document CHEMBL4308889, “Resorcinol alkyl glucosides as potent tyrosinase inhibitors” (Bioorg Med Chem Lett, 2019).
